Measurements as given in PMC6765698 (CPT: Pharmacometrics & Systems Pharmacology, 2019).
≈ marks a conversion by molar mass, not a printed value. Like-named read-outs stand apart in the source and are kept apart here.

Experiments:
[1] = Acid dissociation constant pKa; format: physicochemical; conditions: mean measured, WG, monoprotic base
[2] = Octanol-water partition coefficient logP / logD; format: physicochemical
[3] = pH 1.1; ADAM model input; ref Taupitz 2013 42; cited from earlier work
[4] = Equilibrium solubility in aqueous and bio-relevant media; format: physicochemical; conditions: fed state simulated intestinal fluid, pH 5.0
[5] = 100 mg i.v. dose; cited from earlier work
WG PBPK model = assay: WG PBPK model; set-up: species or system human
CYP3A4 [6] = molecular target: T1, CYP3A4 (Homo sapiens, UniProt P08684); assay: Enzyme kinetics; conditions: human liver microsomes
T1 sequence (P08684 whole entry): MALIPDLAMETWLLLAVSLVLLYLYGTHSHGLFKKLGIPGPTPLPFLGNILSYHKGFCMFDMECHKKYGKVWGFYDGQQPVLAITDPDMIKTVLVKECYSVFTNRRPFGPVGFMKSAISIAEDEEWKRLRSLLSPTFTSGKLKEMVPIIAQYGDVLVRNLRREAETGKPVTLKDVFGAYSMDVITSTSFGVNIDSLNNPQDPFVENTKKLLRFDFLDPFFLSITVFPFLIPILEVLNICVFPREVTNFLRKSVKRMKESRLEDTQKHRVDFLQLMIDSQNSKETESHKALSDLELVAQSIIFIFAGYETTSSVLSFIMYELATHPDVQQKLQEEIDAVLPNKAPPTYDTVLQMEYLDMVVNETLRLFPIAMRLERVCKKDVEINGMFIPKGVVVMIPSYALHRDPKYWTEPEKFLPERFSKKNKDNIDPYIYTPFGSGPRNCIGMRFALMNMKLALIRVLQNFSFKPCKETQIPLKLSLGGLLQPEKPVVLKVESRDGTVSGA

CYP3A4 [7] = molecular target: T1, CYP3A4; format: biochemical
[8] = tube adsorption method; ref Isoherranen 2004 (34); cited from earlier work
[9] = Fraction unbound in human liver microsomes; format: in vitro ADME; conditions: equilibrium dialysis at 0.05-[…], calculated at […], WG
[10] = Blood/plasma partition ratio; format: in vitro ADME; conditions: WG
[11] = first-order absorption model, capsule fasted, adjusted to fit observed data

Row | Compound | pKa [1] | logP [2] | Intrinsic solubility [3] [µg/mL] | Solubility in FeSSIF [4] [µg/mL] | CL observed in vivo [5] | Active uptake into hepatocyte (scaling factor) (WG PBPK model; estimated to best describe ITZ IV CL) | Fa (WG PBPK model; [11]) | ka (WG PBPK model; [11]) [h⁻¹] | Km (CYP3A4 [6]) [µM] | Fold less potent than previously reported (CYP3A4 inhibition) (CYP3A4 [7]; apparent Ki in microsomes with WG fu,mic vs literature) | fu,mic ([…] HLM) [8] | fu,mic ([…] HLM) [9] | pKa ([1]; pKa) | Ki (CYP3A4 [7]) [nM] | B/P [10]
1 | CCC(C)n1ncn(-c2ccc(N3CCN(c4ccc(OCC5COC(Cn6cncn6)(c6ccc(Cl)cc6Cl)O5)cc4)CC3)cc2)c1=O (stereo not shown) [ITZ, itraconazole] | 3.64 | 4.9 | 150 | 5 (≈ 7.09 µM) | ~ 21 L/hour | 3.5 | 0.5 | 0.2 | 0.0233 | – | – | – | – | – | –
2 | O=c1[nH]ncn1-c1ccc(N2CCN(c3ccc(OCC4COC(Cn5cncn5)(c5ccc(Cl)cc5Cl)O4)cc3)CC2)cc1 (stereo not shown) [ND-ITZ] | – | – | – | – | – | – | – | – | – | approximately 40 fold | 0.026 | 0.70 | – | – | –
3 | CC(O)C(C)n1ncn(-c2ccc(N3CCN(c4ccc(OCC5COC(Cn6cncn6)(c6ccc(Cl)cc6Cl)O5)cc4)CC3)cc2)c1=O (stereo not shown) [OH-ITZ, hydroxyitraconazole] | – | 4.1 | – | – | – | – | – | – | – | – | – | – | 4 | 8.2 | 0.55
